According to article PMC8430704, “Novel Sulfonamide-Based Carbamates as Selective Inhibitors of BChE” (International Journal of Molecular Sciences, 2021):

Legend:
[1] = biological target: T1, AChE from electric eel (Electrophorus electricus, UniProt O42275); experiment: AChE inhibition, modified Ellman's method; format: biochemical
T1 construct: from tissue
Experimental: (§1) The ability of all synthesized derivatives to inhibit eeAChE (acetylcholinesterase from electric eel, Electrophorus electricus) and eqBChE (butyrylcholinesterase from equine serum) was determined in vitro using the modified Ellman´s method. […] Ellmanʼs method is widely used for measuring cholinesterase activity and the efficiency of cholinesterase inhibitors. The principle of this simple method is the determination of the SH and -S-S- groups. The activity of the cholinesterase is measured indirectly by quantifying the concentration of 2-nitro-5-sulfanylbenzoic acid ion formed in the reaction between 5,5′-dithiobis-2-nitrobenzoic acid (DTNB) and thiocholine (i.e., the product of the acetylthiocholine hydrolysis catalysed by cholinesterase).
(§2) All studied compounds were dissolved in DMSO (concentration 0.01 M) and diluted in demineralized water (concentration 0.001 M). The ability of the studied compounds to inhibit eeAChE and eqBChE was determined using modified Ellman´s method at 25 °C in the presence of phosphate buffered saline (PBS, 0.1 M, pH 7.4) in a glass cuvette with 1 cm optical path. The enzyme activity in the total reaction mixture (2 mL) was 0.2 U/mL; the concentration of acetylthiocholine (ATCh) or butyrylthiocholine (BTCh) was 40 μM; and the concentration of DTNB was 0.1 mM for all reactions. The inhibitory activity of the studied derivatives was evaluated based on the ratio v0/vi (v0 is the rate of ATCh or BTCh hydrolysis in the absence of the inhibitor, vi is the rate of ATCh or BTCh hydrolysis in the presence of the inhibitor). The IC50 value was obtained from the dependence v0/vi on the concentration of the tested compound (inhibitor).
(§3) The determination of v0 was done as follows. Into the cuvette, PBS (0.1 M, pH 7.4), DTNB, and ATCh (BTCh) were placed. The enzymatic reaction was started by adding the enzyme. […] The measurement was performed at least in triplicate, and average v0 was determined.
(§4) Then, vi (for the given concentration of inhibitor) was determined. Into the cuvette, DTNB, ATCh (BTCh), a chosen volume of the suitably diluted inhibitor (to achieve the required concentration of inhibitor in the total reaction mixture), and a certain volume of PBS (to achieve the total volume of the reaction mixture 2 mL after adding the enzyme) were placed. The enzymatic reaction was started by adding the enzyme. […] Five different concentrations of the inhibitor were used, and each measurement was performed at least in duplicate.

[2] = biological target: T2, BChE from equine serum (Equus caballus, UniProt P81908); experiment: BChE inhibition, modified Ellman's method; format: biochemical; settings: for IC50: IC50 (µM) BChE, eqBChE, modified Ellman's method, 25 °C, PBS pH 7.4, mean ± SD, n = 3; for SI (selectivity index) = IC50 (AChE)/IC50 (BChE): value over 1 = more potent inhibition of BChE; for fold higher inhibitory activity against BChE than rivastigmine: ratio of BChE IC50 vs RIV
T2 construct: butyrylcholinesterase from equine serum; from tissue; host or cells: equine serum
T2 sequence (P81908 whole entry): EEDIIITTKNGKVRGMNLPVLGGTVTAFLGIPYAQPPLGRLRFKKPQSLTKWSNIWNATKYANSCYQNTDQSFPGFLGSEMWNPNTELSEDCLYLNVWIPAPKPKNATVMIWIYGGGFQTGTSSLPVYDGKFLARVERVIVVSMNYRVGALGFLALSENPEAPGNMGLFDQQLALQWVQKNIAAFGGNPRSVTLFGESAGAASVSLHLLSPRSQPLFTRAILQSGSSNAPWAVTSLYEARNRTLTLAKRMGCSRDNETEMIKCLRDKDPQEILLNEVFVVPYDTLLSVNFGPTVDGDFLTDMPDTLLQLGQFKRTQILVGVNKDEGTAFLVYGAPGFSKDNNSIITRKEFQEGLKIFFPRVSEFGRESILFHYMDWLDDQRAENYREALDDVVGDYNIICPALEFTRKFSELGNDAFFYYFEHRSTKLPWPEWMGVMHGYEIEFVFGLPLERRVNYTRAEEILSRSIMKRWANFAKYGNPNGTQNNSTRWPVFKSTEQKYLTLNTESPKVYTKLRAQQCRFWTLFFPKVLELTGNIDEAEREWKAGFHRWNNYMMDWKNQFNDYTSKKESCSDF
Experimental: Based on IC50 values for both cholinesterases, selectivity indexes (SI) as the ratio of IC50 for AChE/IC50 for BChE to quantify the preference for BChE were calculated.
as §1, §2, §3, §4

[3] = biological target: T2, BChE from equine serum; experiment: Carbamylation of BChE (progressive inhibition kinetics); format: biochemical; settings: from kobs vs. inhibitor concentration
Experimental: The evaluation of BChE carbamylation was performed on the basis of the measured dependences % residual activity vs. time in the presence of appropriate concentration of inhibitor. […] These dependences were evaluated by non-linear regression and the pseudo-first-order rate constants kobs for progressive inhibition at several inhibitor concentrations were obtained.
The decrease in enzyme activity over time due to inhibitor binding was monitored by the Ellman´s method. Pursuant the procedure described in Carletti [86], the determination was performed subsequently: the reaction mixture containing PBS (0.1 M, pH 7.4), BChE and chosen inhibitor in an appropriate concentration was prepared and intensively stirred. In given times DTNB and BTCh were added to the sample withdrawn from stirred reaction mixture, quickly mixed and absorbance was measured. Consequently, the enzyme activity was determined. Based on knowledge of enzyme activity in the absence of the inhibitor (i.e., 100% activity), the percentages of residual activity in presence of the inhibitor were calculated. Then the dependence of percentage of residual activity vs. time was constructed [87]. By nonlinear regression of these dependences the values of kobs were obtained and subsequently rate constants for carbamylation were calculated. All experiments were performed in duplicate at least.

[4] = biological target: T2, BChE from equine serum; experiment: Reactivation (decarbamylation) of inhibited BChE; format: biochemical; settings: BChE from equine serum inhibited ≥ 95%, dilution into PBS
Experimental: The procedure is described in Section 3.4.
Monitoring of enzyme reactivation was performed as follows. […] The excess inhibitor was removed by dilution into PBS. Samples were withdrawn at successive time points and assayed to measure recovery of enzymatic activity (Ellman´s method was used). […] All experiments were performed in duplicate at least.

[5] = tested on: human BChE; settings: cited from earlier work
[6] = tested on: human BChE; settings: cited from earlier work; remark: listed apart in the source
[7] = Preliminary stability test (decomposition in buffer, HPLC)
Experimental: pH (6, 7.4, 8). Measurement of these degradations was performed by HPLC in reverse phase
acetonitrile/water (98:2). The compound was stirred in a tempered buffer (37 °C) of appropriate
pH and a sample was taken for HPLC analysis at a specified time.

T1 sequence (O42275 24-633): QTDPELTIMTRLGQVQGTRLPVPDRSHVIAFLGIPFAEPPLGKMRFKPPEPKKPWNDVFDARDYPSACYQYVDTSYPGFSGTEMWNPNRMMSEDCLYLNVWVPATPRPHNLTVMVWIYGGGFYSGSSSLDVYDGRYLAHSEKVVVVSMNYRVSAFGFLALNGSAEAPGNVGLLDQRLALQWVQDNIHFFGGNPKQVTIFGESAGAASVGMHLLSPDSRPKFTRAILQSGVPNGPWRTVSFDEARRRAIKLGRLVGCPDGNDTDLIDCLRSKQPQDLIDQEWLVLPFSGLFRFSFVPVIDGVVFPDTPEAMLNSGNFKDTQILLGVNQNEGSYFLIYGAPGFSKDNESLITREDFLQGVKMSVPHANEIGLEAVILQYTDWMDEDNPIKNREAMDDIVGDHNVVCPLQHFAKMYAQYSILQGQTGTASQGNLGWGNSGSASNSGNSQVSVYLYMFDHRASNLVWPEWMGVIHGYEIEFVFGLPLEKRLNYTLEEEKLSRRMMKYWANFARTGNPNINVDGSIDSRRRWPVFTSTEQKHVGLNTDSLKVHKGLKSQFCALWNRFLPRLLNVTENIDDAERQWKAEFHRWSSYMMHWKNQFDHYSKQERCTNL

CC(C)C[C@@H](CS(=O)(=O)Nc1ccccc1)NC(=O)OCc1ccccc1 [Compound 5d, Benzyl [(2S)-4-methyl-1-(phenylsulfamoyl)pentan-2-yl]carbamate]
IC50 [1]: 55.6 ± 1.38 µM
IC50 [2]: 16.54 ± 0.1 µM
SI (selectivity index) = IC50 (AChE)/IC50 (BChE) [2]: 3.36

CC(C)C[C@@H](CS(=O)(=O)NCCc1ccccc1)NC(=O)OCc1ccccc1 [Compound 5f, Benzyl {(2S)-4-methyl-1-[(2-phenylethyl)sulfamoyl]pentan-2-yl}carbamate]
IC50 [1]: 115 ± 6.22 µM
IC50 [2]: 15.3 ± 0.38 µM
SI (selectivity index) = IC50 (AChE)/IC50 (BChE) [2]: 7.50

CCCNS(=O)(=O)C[C@H](CC(C)C)NC(=O)OCc1ccccc1 [Compound 5e, Benzyl [(2S)-4-methyl-1-(propylsulfamoyl)pentan-2-yl]carbamate]
IC50 [1]: 108 ± 2.39 µM
IC50 [2]: 58.9 ± 1.88 µM
SI (selectivity index) = IC50 (AChE)/IC50 (BChE) [2]: 1.84

CC(C)C[C@@H](CS(=O)(=O)NCc1ccc(Cl)cc1)NC(=O)OCc1ccccc1 [Compound 5j, Benzyl {(2S)-1-[(4-chlorobenzyl)sulfamoyl]-4-methylpentan-2-yl}carbamate]
IC50 [1]: 67.47 ± 0.37 µM
IC50 [2]: 6.57 ± 0.12 µM
fold higher inhibitory activity against BChE than rivastigmine [2]: approximately 5 fold
apparent bimolecular rate constant (ki) of carbamylation [3]: 1.084 ± 0.0535 M⁻¹ s⁻¹
reactivation of BChE after 24 h [4]: 37%

CCN(C)C(=O)Oc1cccc([C@H](C)N(C)C)c1 [RIV, rivastigmine]
bimolecular rate constant for the carbamylation [5]: 1500 M⁻¹ s⁻¹
reactivation of human BChE after 24 h ([6]; 24 h): < 10%

O=C(N[C@@H](Cc1ccccc1)CS(=O)(=O)Nc1ccc(Cl)c(Cl)c1)OCc1ccccc1 [Compound 5g, Benzyl {(2S)-1-[(3,4-dichlorophenyl)sulfamoyl]-3-phenylpropan-2-yl}carbamate]
IC50 [1]: 78.83 ± 0.63 µM
IC50 [2]: 12.6 ± 0.31 µM
SI (selectivity index) = IC50 (AChE)/IC50 (BChE) [2]: 6.25

O=C(N[C@@H](Cc1ccccc1)CS(=O)(=O)NCc1ccccc1)OCc1ccccc1 [Compound 5b, Benzyl [(2S)-1-(benzylsulfamoyl)-3-phenylpropan-2-yl]carbamate]
IC50 [1]: 76.9 ± 1.52 µM
IC50 [2]: 86.1 ± 1.91 µM
SI (selectivity index) = IC50 (AChE)/IC50 (BChE) [2]: 0.89

CC(C)C[C@@H](CS(=O)(=O)NCc1ccc(F)c(F)c1)NC(=O)OCc1ccccc1 [Compound 5l, Benzyl {(2S)-1-[(3,4-difluorobenzyl)sulfamoyl]-4-methylpentan-2-yl}carbamate]
IC50 [1]: 92.9 ± 2.47 µM
IC50 [2]: 55.6 ± 1.38 µM
SI (selectivity index) = IC50 (AChE)/IC50 (BChE) [2]: 1.67

CC(C)C[C@@H](CS(=O)(=O)NCc1ccccc1)NC(=O)OCc1ccccc1 [Compound 5c, Benzyl [(2S)-1-(benzylsulfamoyl)-4-methylpentan-2-yl]carbamate]
IC50 [1]: 91.8 ± 4.89 µM
IC50 [2]: 8.52 ± 0.32 µM
fold higher inhibitory activity against BChE than rivastigmine [2]: approximately 5 fold

O=C(N[C@@H](Cc1ccccc1)CS(=O)(=O)N[C@@H]1CCCO1)OCc1ccccc1 [Compound 5i, Benzyl {(2S)-1-phenyl-3-[(2S)-tetrahydrofuran-2-ylsulfamoyl]propan-2-yl}carbamate]
IC50 [1]: 61.7 ± 1.47 µM
IC50 [2]: 112 ± 3.41 µM
SI (selectivity index) = IC50 (AChE)/IC50 (BChE) [2]: 0.55

C[C@@H](CS(=O)(=O)NCc1ccccc1)NC(=O)OCc1ccccc1 [Compound 5a, Benzyl [(2S)-1-(benzylsulfamoyl)propan-2-yl]carbamate]
IC50 [1]: 90.6 ± 5.7 µM
IC50 [2]: 100 ± 4.26 µM
SI (selectivity index) = IC50 (AChE)/IC50 (BChE) [2]: 0.90

CC(C)C[C@@H](CS(=O)(=O)NCc1ccco1)NC(=O)OCc1ccccc1 [Compound 5m, Benzyl {(2S)-1-[(furan-2-ylmethyl)sulfamoyl]-4-methylpentan-2-yl}carbamate]
IC50 [1]: 131.8 ± 0.42 µM
IC50 [2]: 19.99 ± 0.17 µM

CCN(C)C(=O)Cl [EMCC, N,N-ethylmethylcarbaryl chloride]
reactivation of human BChE upon dilution ([6]; upon dilution): complete and rapid reactivation

O=C(N[C@@H](Cc1ccccc1)CS(=O)(=O)Nc1ccc2c(c1)OCO2)OCc1ccccc1 [Compound 5h, Benzyl [(2S)-1-(1,3-benzodioxol-5-ylsulfamoyl)-3-phenylpropan-2-yl]carbamate]
IC50 [1]: 61.39 ± 0.47 µM
IC50 [2]: 11.5 ± 0.28 µM
SI (selectivity index) = IC50 (AChE)/IC50 (BChE) [2]: 5.32

CC(C)C[C@@H](CS(=O)(=O)Nc1ccc(Cl)c(Cl)c1)NC(=O)OCc1ccccc1 [Compound 5n, Benzyl {(2S)-1-[(3,4-dichlorophenyl)sulfamoyl]-4-methylpentan-2-yl}carbamate]
IC50 [1]: 95.1 ± 2.77 µM
IC50 [2]: 13.5 ± 0.51 µM
SI (selectivity index) = IC50 (AChE)/IC50 (BChE) [2]: 7.04

COc1ccccc1CNS(=O)(=O)C[C@H](CC(C)C)NC(=O)OCc1ccccc1 [Compound 5k, Benzyl {(2S)-1-[(2-methoxybenzyl)sulfamoyl]-4-methylpentan-2-yl}carbamate]
IC50 [1]: 150 ± 3.82 µM
starting material remaining ([7]; buffer pH 6, 37 °C, after 6 hrs): 13%
substance decomposed in the first hour ([7]; buffer pH 6, 37 °C, first hour): 75%
starting material remaining ([7]; buffer pH 7.4, 37 °C, 48 hours): 36%
starting material remaining ([7]; buffer pH 8, 37 °C, 4 hours): 5%
